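Interpolation was linear, between the two tested concentrations surrounding the appropriate level; five concentrations were tested over 48 hours in 96-well plates. At the TGI there is no net growth.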
Assays:
Experiment in all cases: growth of human tumour cells (NCI), 48 h
[1] = system: 786-0 renal
[2] = system: A498 renal
[3] = system: A549 NSCLC
[4] = system: ACHN renal
[5] = system: BT-549 breast
[6] = system: CAKI-1 renal
[7] = system: CCRF-CEM leukemia
[8] = system: COLO 205 colon
[9] = system: DU-145 prostate
[10] = system: EKVX NSCLC
[11] = system: HCC-2998 colon
[12] = system: HCT-116 colon
[13] = system: HCT-15 colon
[14] = system: HOP-62 NSCLC
[15] = system: HOP-92 NSCLC
[16] = system: HS 578T breast
[17] = system: HT29 colon
[18] = system: IGROV1 ovarian
[19] = system: K-562 leukemia
[20] = system: KM12 colon
[21] = system: LOX IMVI melanoma
[22] = system: M14 melanoma
[23] = system: MALME-3M melanoma
[24] = system: MCF7 breast
[25] = system: MDA-MB-231 breast
[26] = system: MDA-MB-435
[27] = system: MDA-N
[28] = system: MOLT-4 leukemia
[29] = system: NCI-H226 lung
[30] = system: NCI-H23 lung
[31] = system: NCI-H460 lung
[32] = system: NCI-H522 lung
[33] = system: NCI/ADR-RES ovarian
[34] = system: OVCAR-3 ovarian
[35] = system: OVCAR-4 ovarian
[36] = system: OVCAR-5 ovarian
[37] = system: OVCAR-8 ovarian
[38] = system: PC-3 prostate
[39] = system: RPMI-8226 leukemia
[40] = system: RXF 393 renal
[41] = system: SF-268 CNS
[42] = system: SF-295 CNS
[43] = system: SF-539 CNS
[44] = system: SK-MEL-2 melanoma
[45] = system: SK-MEL-28 melanoma
[46] = system: SK-MEL-5 melanoma
[47] = system: SK-OV-3 ovarian
[48] = system: SN12C renal
[49] = system: SNB-19 CNS
[50] = system: SR leukemia
[51] = system: SW-620 colon
[52] = system: T-47D breast
[53] = system: TK-10 renal
[54] = system: U251 CNS
[55] = system: UACC-257 melanoma
[56] = system: UACC-62 melanoma
[57] = system: UO-31 renal

CCC(=O)Oc1ccc2c(c1)c(=O)c1c(NCCCN(C)C)ccc3nnn2c31
TGI [1]: 7.06 µM
TGI [2]: 18.3 µM
TGI [3]: 13.4 µM
TGI [4]: 12.7 µM
TGI [5]: 24.7 µM
TGI [6]: 14.3 µM
TGI [7]: 2.01 µM
TGI [8]: 13.7 µM
TGI [9]: 16.7 µM
TGI [10]: 16.6 µM
TGI [11]: 15 µM
TGI [12]: 14.4 µM
TGI [13]: 15.9 µM
TGI [14]: 16.6 µM
TGI [15]: 21.3 µM
TGI [16]: 21.6 µM
TGI [17]: 11.6 µM
TGI [18]: 13.9 µM
TGI [19]: > 100 µM
TGI [20]: 18.3 µM
TGI [21]: 2.88 µM
TGI [22]: 20.1 µM
TGI [23]: 17 µM
TGI [24]: 12.7 µM
TGI [25]: 19.1 µM
TGI [26]: 18.7 µM
TGI [27]: 18.4 µM
TGI [28]: 5.69 µM
TGI [29]: 11.8 µM
TGI [30]: 20.3 µM
TGI [31]: 9.23 µM
TGI [32]: 9.06 µM
TGI [33]: 18.5 µM
TGI [34]: 21 µM
TGI [35]: 3.31 µM
TGI [36]: 22.6 µM
TGI [37]: 15.1 µM
TGI [38]: 16.1 µM
TGI [39]: 7.16 µM
TGI [40]: 15.5 µM
TGI [41]: 17.2 µM
TGI [42]: 17.3 µM
TGI [43]: 13.9 µM
TGI [44]: 26.4 µM
TGI [45]: 23.9 µM
TGI [46]: 10.3 µM
TGI [47]: 18.9 µM
TGI [48]: 15.3 µM
TGI [49]: 17.3 µM
TGI [50]: 6.01 µM
TGI [51]: 13.5 µM
TGI [52]: 31 µM
TGI [53]: 15.5 µM
TGI [54]: 17 µM
TGI [55]: 23.4 µM
TGI [56]: 23.5 µM
TGI [57]: 5.3 µM
